Patent US9708336B2, “Metallo-beta-lactamase inhibitors” (priority 2014, dated 2017)
pIC50: −log10 of the molar value. Where two headings read alike, the source gives them in different places.

Assays:
IMP-1 = IMP-1 (Serratia marcescens, UniProt P52699); assay: biochemical; assay type: biochemical; details: read-out: IMP-1 IC50
NDM-1 = NDM-1 (Klebsiella pneumoniae, UniProt C7C422); assay: biochemical; assay type: biochemical; details: read-out: NDM-1 IC50
VIM-1 = VIM-1 (Pseudomonas aeruginosa (strain ATCC 15692 / DSM 22644 / CIP 104116 / JCM 14847 / LMG 12228 / 1C / PRS 101 / PAO1), UniProt A0A0F7KYQ8); assay: Enzyme activity: determination of IC50, fluorescence assay with CCF2-FA substrate (VIM-1); assay type: biochemical
[1] = system: Klebsiella pneumoniae expressing VIM-1 (IHMA599644); assay: Antibiotic potentiation activity: synergistic concentration (MITC95) with imipenem, OD600 growth; assay type: cell-based
In short: (§1)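 Growth after 22–24 h at 35 °C is measured spectrophotometrically for bacteria incubated with compound plus imipenem (4 μg/ml in-well, or 1 μg/ml). Cells come from overnight agar colonies resuspended in saline and diluted 1:100 in 1.1× CAMHB.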

[2] = system: Serratia marcescens expressing IMP-1 (CL5741); assay: as above; assay type: cell-based
In short: as §1

[3] = system: Escherichia coli expressing NDM-1 (CLB30016); assay: as above; assay type: cell-based
In short: as §1

[4] = IMP-1 enzyme, CCF2-FA fluorescence assay
[5] = NDM-1 enzyme, CCF2-FA fluorescence assay
[6] = VIM-1 enzyme, CCF2-FA fluorescence assay, read-out: VIM-1 IC50
[7] = Klebsiella pneumoniae expressing VIM-1 (IHMA599644), 95% growth inhibition
[8] = Serratia marcescens expressing IMP-1 (CL5741), 95% growth inhibition
[9] = Escherichia coli expressing NDM-1 (CLB30016), 95% growth inhibition
[10] = IMP-1 enzyme, CCF2-FA substrate
[11] = NDM-1 enzyme, CCF2-FA substrate
[12] = VIM-1 enzyme, CCF2-FA substrate, read-out: VIM-1 IC50
[13] = Klebsiella pneumoniae IHMA599644 (VIM-1), 95% growth inhibition
[14] = Serratia marcescens CL5741 (IMP-1), 95% growth inhibition
[15] = (CLB30016, NDM-1), 95% growth inhibition
[16] = VIM-1 IC50, VIM-1 enzyme, CCF2-FA substrate
[17] = fluorescence assay with CCF2-FA substrate
[18] = fluorescence assay with CCF2-FA substrate, read-out: VIM-1 IC50
[19] = IHMA599644 (VIM-1), 95% inhibition of bacterial growth
[20] = CL5741 (IMP-1), 95% inhibition of bacterial growth
[21] = CLB30016 (NDM-1), 95% inhibition of bacterial growth

Chain of IMP-1 (P52699 whole entry, looked up): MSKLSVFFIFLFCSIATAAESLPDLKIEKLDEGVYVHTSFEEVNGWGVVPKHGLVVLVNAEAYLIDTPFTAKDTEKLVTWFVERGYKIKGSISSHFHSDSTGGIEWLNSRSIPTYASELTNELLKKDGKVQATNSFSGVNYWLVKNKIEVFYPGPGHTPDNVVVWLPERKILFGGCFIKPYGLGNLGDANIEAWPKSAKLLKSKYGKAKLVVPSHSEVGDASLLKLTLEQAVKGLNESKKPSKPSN
Chain of NDM-1 (C7C422 whole entry, looked up, species assumed): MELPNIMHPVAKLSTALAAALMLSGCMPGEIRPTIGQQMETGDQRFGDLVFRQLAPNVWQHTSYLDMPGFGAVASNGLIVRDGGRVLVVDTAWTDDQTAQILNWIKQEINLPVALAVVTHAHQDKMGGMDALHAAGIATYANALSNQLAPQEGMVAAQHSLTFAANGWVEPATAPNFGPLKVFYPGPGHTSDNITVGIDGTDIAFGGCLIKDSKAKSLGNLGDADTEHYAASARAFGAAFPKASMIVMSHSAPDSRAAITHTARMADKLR

| SMILES | pIC50 (IMP-1; [10]) | pIC50 (NDM-1; [11]) | pIC50 (VIM-1; [12]) | Klebsiella pneumoniae MITC95 [1, 13] [µM] | Serratia marcescens MITC95 [2, 14] [µM] | Escherichia coli MITC95 [3, 15] [µM] | also measured |
| --- | --- | --- | --- | --- | --- | --- | --- |
| CC1(C)CCN(Cc2ccc(-c3cccc(S(N)(=O)=O)c3-c3nnn[nH]3)cc2)C1 [Example 346, 4′-[(3,3-dimethylpyrrolidin-1-yl)methyl]-2-(1H-tetrazol-5-yl)biphenyl-3-sulfonamide] | – | – | – | – | – | – | pIC50 (IMP-1; [4]): 6.63; pIC50 (NDM-1; [5]): 7.93; pIC50 (VIM-1; [6]): 6.39; Klebsiella pneumoniae MITC95 [1, 7]: 150 µM; Serratia marcescens MITC95 [2, 8]: 2.344 µM; Escherichia coli MITC95 [3, 9]: 1.563 µM |
| NS(=O)(=O)c1c(C(F)(F)F)ccc(-c2cccc(C3CCNC3)c2)c1-c1nnn[nH]1 (stereo not drawn) [Example 722, 3′-pyrrolidin-3-yl-2-(1H-tetrazol-5-yl)-4-(trifluoromethyl)biphenyl-3-sulfonamide] | 7.66 | 7.68 | 8.84 | 6.25 | 25 | 12.5 | – |
| NC[C@H]1CC[C@H](Cc2ccc(-c3ccc(N)nc3)c(-c3nnn[nH]3)c2S(N)(=O)=O)CC1 [Example 579, 6-(((1r,4r)-4-(aminomethyl)cyclohexyl)methyl)-3-(6-aminopyridin-3-yl)-2-(1H-tetrazol-5-yl)benzenesulfonamide] | 7.75 | 8.79 | – | 12.5 | 3.125 | 0.7813 | pIC50 (VIM-1; [16]): 8.51 |
| CC(C)[C@H](N)CN1CCC(c2ccc(-c3cccc(S(N)(=O)=O)c3-c3nnn[nH]3)cc2)CC1 [Example 615, 3-[4-[1-[(2S)-2-amino-3-methyl-butyl]-4-piperidyl]phenyl]-2-(1H-tetrazol-5-yl)benzenesulfonamide] | 7.78 | 8.01 | 6.21 | >200 | 1.172 | 0.7813 | – |
| Cl.Cl.NC1CNCCC1(O)c1ccc(-c2cccc(S(N)(=O)=O)c2-c2nn[nH]n2)cc1 (racemic) [Example 282, 4′-(3-amino-4-hydroxypiperidin-4-yl)-2-(2H-tetrazol-5-yl)-[1,1′-biphenyl]-3-sulfonamide dihydrochloride (trans, racemate)] | – | – | – | – | – | – | pIC50 (IMP-1; [4]): 6.58; pIC50 (NDM-1; [5]): 7.67; pIC50 (VIM-1; [6]): 6.74; Klebsiella pneumoniae MITC95 [1, 7]: 12.5 µM; Serratia marcescens MITC95 [2, 8]: 1.563 µM; Escherichia coli MITC95 [3, 9]: 0.7813 µM |
| CC(CCCN)N[C@H]1CC[C@H](c2ccc(C(F)(F)F)c(S(N)(=O)=O)c2-c2nnn[nH]2)CC1 (stereo partly drawn) [Example 688, 3-{4-[(4-amino-1-methylbutyl)amino]cyclo-hexyl)-2-(1H-tetrazol-5-yl)-6-(trifluoromethyl)benzene sulfonamide] | 6.80 | 7.36 | 7.87 | 12.5 | 6.25 | 1.563 | – |
| CN(CCCCN)c1nc2c(-c3cccc(S(N)(=O)=O)c3-c3nnn[nH]3)cccc2s1 [Example 645, 3-[2-[4-aminobutyl(methyl)amino]-1,3-benzothiazol-4-yl]-2-(1H-tetrazol-5-yl)benzenesulfonamide] | 7.05 | 8.94 | – | 50 | 100 | 1.563 | pIC50 (VIM-1; [16]): 8.28 |
| NS(=O)(=O)c1c(C(F)(F)F)ccc(-c2ccc3c(c2)CNCC3)c1-c1nnn[nH]1 [Example 720, 3-(1,2,3,4-tetrahydroisoquinolin-7-yl)-2-(1H-tetrazol-5-yl)-6-(trifluoromethyl)benzenesulfon-amide] | 7.79 | 8.52 | 8.98 | 3.125 | 12.5 | 6.25 | – |
| NS(=O)(=O)c1cccc(-c2cccc3sc(NC4CCN(CCF)CC4)nc23)c1-c1nnn[nH]1 [Example 646, 3-[2-[[1-(2-fluoroethyl)-4-piperidyl]amino]-1,3-benzothiazol-4-yl]-2-(1H-tetrazol-5-yl)benzenesulfonamide] | 7.50 | 9.07 | – | 100 | 50 | 3.125 | pIC50 (VIM-1; [16]): 8.29 |
| CN(C)CCCN(C)Cc1ccc(-c2cccc(S(N)(=O)=O)c2-c2nnn[nH]2)cc1 [Example 368, 4′-({[3-(dimethylamino)propyl](methyl)amino}methyl)-2-(1H-tetrazol-5-yl)biphenyl-3-sulfonamide] | – | – | – | – | – | – | pIC50 (IMP-1; [4]): 6.38; pIC50 (NDM-1; [5]): 7.63; pIC50 (VIM-1; [6]): 5.78; Klebsiella pneumoniae MITC95 [1, 7]: >200 µM; Serratia marcescens MITC95 [2, 8]: 9.375 µM; Escherichia coli MITC95 [3, 9]: 1.563 µM |
| NC[C@H]1CC[C@@H](c2ccc(CCC3CCNCC3)c(S(N)(=O)=O)c2-c2nnn[nH]2)CC1 [Example 592, 3-((1s,4s)-4-(aminomethyl)cyclohexyl)-6-(2-(piperidin-4-yl)ethyl)-2-(1H-tetrazol-5-yl)benzenesulfonamide] | 7.08 | 8.07 | 7.46 | 12.5 | 3.125 | 1.563 | – |
| NS(=O)(=O)c1cccc(-c2ccc(NCC3CCN3)nc2)c1-c1nnn[nH]1 (stereo not drawn) [Example 638, 3-[6-(azetidin-2-ylmethylamino)-3-pyridyl]-2-(1H-tetrazol-5-yl)benzenesulfonamide] | 6.23 | 7.26 | – | 12.5 | 12.5 | 0.7813 | pIC50 (VIM-1; [16]): 6.74 |
| Cc1cc(N)ncc1Cc1cccc(S(N)(=O)=O)c1-c1nn[nH]n1 [Example 573, 3-((6-amino-4-methylpyridin-3-yl)methyl)-2-(2H-tetrazol-5-yl)benzenesulfonamide] | 6.18 | 7.41 | 7.38 | 12.5 | 12.5 | 0.7813 | – |
| NS(=O)(=O)c1c(C(F)(F)F)ccc(N2CCC3(CCNC3)CC2)c1-c1nnn[nH]1 [Example 775, 3-(2,8-diazaspiro[4.5]dec-8-yl)-2-(1H-tetrazol-5-yl)-6-(trifluoromethyl) benzenesulfonamide] | – | – | – | – | – | – | pIC50 (IMP-1; [17]): 7.45; pIC50 (NDM-1; [17]): 8.04; pIC50 (VIM-1; [18]): 8.28; Klebsiella pneumoniae MITC95 [1, 19]: 12.5 µM; Serratia marcescens MITC95 [2, 20]: 6.25 µM; Escherichia coli MITC95 [3, 21]: 3.125 µM |
| NS(=O)(=O)c1c(C(F)(F)F)ccc(N2CCC3(CCNCC3)C2)c1-c1nnn[nH]1 [Example 771, 3-(2,8-diazaspiro[4.5]dec-2-yl)-2-(1H-tetrazol-5-yl)-6-(trifluoromethyl) benzenesulfonamide] | – | – | – | – | – | – | pIC50 (IMP-1; [17]): 6.64; pIC50 (NDM-1; [17]): 7.51; pIC50 (VIM-1; [18]): 7.64; Klebsiella pneumoniae MITC95 [1, 19]: 50 µM; Serratia marcescens MITC95 [2, 20]: 50 µM; Escherichia coli MITC95 [3, 21]: 25 µM |
| NS(=O)(=O)c1c(C(F)(F)F)ccc(-c2ccc(C3CN(C4CC5(CCNCC5)C4)C3)cc2)c1-c1nnn[nH]1 [Example 805, 4′-[1-(7-azaspiro[3.5]non-2-yl)azetidin-3-yl]-2-(1H-tetrazol-5-yl)-4-(trifluoromethyl)biphenyl-3-sulfonamide] | – | – | – | – | – | – | pIC50 (IMP-1; [17]): 8.12; pIC50 (NDM-1; [17]): 8.42; pIC50 (VIM-1; [18]): 7.71; Klebsiella pneumoniae MITC95 [1, 19]: 50 µM; Serratia marcescens MITC95 [2, 20]: 6.25 µM; Escherichia coli MITC95 [3, 21]: 3.125 µM |
